Experimental data taken from US20110160256A1, “INHIBITORS OF AKT ACTIVITY” (priority 2008, published 2011).
“And” between values parts separate entries of the source, which are not always exact repeats. Identical values can stand only once.

Target: T1, full length AKT1 (Homo sapiens, UniProt P31749)
T1 construct: Full-length human AKT1 gene was amplified by PCR; His6 tag from the pFastBacHTb vector (own knowledge: N-terminal His6, spacer and TEV site; supported by the nickel purification) (N); made in house; host or cells: baculovirus-infected insect cells (virus produced in Sf9; T. ni cells infected; purification text says sf9 cells)
Test: Full-length AKT enzyme assay (substrate phosphorylation, SPA)
Format: biochemical
Conditions: in at least one experimental run; 10 nM activated AKT enzyme, 4 uM ATP; pIC50 = -log(IC50), IC50 in molar units; read-out: pIC50 value against full length AKT1 (converted)
Source text: Cloning of Full-Length Human (FL) AKT1:
Full-length human AKT1 gene was amplified by PCR from a plasmid containing myristylated-AKT1-ER (gift from Robert T. Abraham, Duke University under MTA, described in Klippel et al. in Molecular and Cellular Biology 1998 Volume 18 p. 5699) using the 5′ primer: SEQ. ID NO: 2 5′ […] 3′ and the 3′ primer: SEQ. ID NO: 3 […] 3′. The 5′ primer included a BamHI site and the 3′ primer included an XhoI site for cloning purposes. The resultant PCR product was subcloned in pcDNA3 as a BamHI/XhoI fragment. A mutation in the sequence (TGC) coding for a Cysteine^25 was converted to the wild-type AKT1 sequence (CGC) coding for an Arginine^25 by site-directed mutagenesis using the QuikChange® Site Directed Mutagenesis Kit (Stratagene). The AKT1 mutagenic primer: SEQ. ID NO: 4 5′ […] and selection primer: SEQ. […] For expression/purification purposes, AKT1 was isolated as a BamHI/XhoI fragment and cloned into the BamHI/XhoI sites of pFastbacHTb (Invitrogen).
Expression of FL Human AKT1:
Expression was done using the BAC-to-BAC Baculovirus Expression System from Invitrogen (catalog #10359-016). […]
Compounds of the present invention were tested for AKT 1, 2, and 3 protein serine kinase inhibitory activity in substrate phosphorylation assays. […] Substrate phosphorylation was detected by the following procedure. […]

T1 sequence (P31749 whole entry): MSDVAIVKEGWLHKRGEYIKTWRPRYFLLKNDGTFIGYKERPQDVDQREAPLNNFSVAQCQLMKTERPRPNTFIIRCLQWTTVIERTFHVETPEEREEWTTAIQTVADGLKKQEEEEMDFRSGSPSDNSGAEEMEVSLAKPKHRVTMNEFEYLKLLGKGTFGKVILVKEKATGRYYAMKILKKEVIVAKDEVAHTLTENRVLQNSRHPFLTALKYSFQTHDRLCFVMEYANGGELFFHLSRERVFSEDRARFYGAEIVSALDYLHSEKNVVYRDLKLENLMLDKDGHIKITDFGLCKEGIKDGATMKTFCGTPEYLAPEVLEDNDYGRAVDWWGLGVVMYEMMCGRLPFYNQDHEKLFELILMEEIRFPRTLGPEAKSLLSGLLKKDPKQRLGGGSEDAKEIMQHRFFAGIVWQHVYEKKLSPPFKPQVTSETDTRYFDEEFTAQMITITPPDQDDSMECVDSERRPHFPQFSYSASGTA

Row | IC50 | SMILES
1 | ≤ 501 nM and 501 nM | Cn1nccc1-c1csc(C(=O)N[C@H](CN)Cc2cccc(F)c2)n1 [Example 1, N-{(1S)-2-amino-1-[(3-fluorophenyl)methyl]ethyl}-4-(1-methyl-1H-pyrazol-5-yl)-1,3-thiazole-2-carboxamide]
2 | ≤ 501 nM | Cn1nccc1-c1csc(C(=O)NC(CN)Cc2ccccc2)n1 (centres unmarked) [Example 3, N-[2-amino-1-(phenylmethyl)ethyl]-4-(1-methyl-1H-pyrazol-5-yl)-1,3-thiazole-2-carboxamide]
